Holding throughout (format): cell-based
One data set concerns the target T1, hTLR7 (Homo sapiens, UniProt Q9NYK1).
T1 construct: codes for a protein of 1049 amino acids; expressed in transfected cells; host or cells: human 293 fibroblasts (ATCC CRL-1573), transient
T1 sequence (Q9NYK1 27-1049): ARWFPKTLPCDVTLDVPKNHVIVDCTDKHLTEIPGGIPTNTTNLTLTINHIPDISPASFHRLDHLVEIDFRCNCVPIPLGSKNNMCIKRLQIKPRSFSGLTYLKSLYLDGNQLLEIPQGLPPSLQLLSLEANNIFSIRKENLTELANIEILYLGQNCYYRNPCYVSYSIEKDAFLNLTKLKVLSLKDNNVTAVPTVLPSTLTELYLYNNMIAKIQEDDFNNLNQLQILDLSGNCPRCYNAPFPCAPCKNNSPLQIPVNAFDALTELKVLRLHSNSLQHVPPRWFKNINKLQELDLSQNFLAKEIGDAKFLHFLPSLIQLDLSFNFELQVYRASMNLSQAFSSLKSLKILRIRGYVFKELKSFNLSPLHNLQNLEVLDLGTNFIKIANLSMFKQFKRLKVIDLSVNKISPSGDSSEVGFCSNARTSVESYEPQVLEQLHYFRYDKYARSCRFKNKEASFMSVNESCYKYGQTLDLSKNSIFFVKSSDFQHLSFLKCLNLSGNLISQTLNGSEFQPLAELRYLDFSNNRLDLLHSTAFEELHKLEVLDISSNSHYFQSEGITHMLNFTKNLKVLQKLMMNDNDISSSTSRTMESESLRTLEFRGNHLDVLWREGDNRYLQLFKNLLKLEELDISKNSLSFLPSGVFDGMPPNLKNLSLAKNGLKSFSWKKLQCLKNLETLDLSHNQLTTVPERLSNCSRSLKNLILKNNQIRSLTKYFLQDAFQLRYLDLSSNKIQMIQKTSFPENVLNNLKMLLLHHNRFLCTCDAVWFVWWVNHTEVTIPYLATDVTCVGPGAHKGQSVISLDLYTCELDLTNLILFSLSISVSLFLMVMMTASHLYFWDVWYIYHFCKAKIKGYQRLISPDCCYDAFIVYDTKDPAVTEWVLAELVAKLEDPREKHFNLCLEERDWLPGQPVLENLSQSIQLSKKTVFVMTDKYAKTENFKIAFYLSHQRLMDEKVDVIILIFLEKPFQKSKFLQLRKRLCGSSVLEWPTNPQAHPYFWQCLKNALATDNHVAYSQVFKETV
Kind of data set: IL-8 production in 293 cells transiently transfected with hTLR7. The note with it: 293 cells transfected with hTLR7; ODN 2 μM, LPS 100 ng/ml. As to the method:
(§1) The cloned human TLR7 and human TLR8 cDNA (our result) were cloned into the expression vector pcDNA3.1 (−) from Invitrogen using the NotI site. Utilizing a “gain of function” assay, hTLR7 and hTLR8 expression vectors were transiently expressed in human 293 fibroblasts (ATCC, CRL-1573) using the calcium phosphate method. Activation was monitored by IL-8 production after stimulus with CpG-ODN (2006 or 1668, 2 μM) or LPS (100 ng/ml).

A further data set concerns human B cells. The experiment in a line: Human B cell proliferation by 3H-thymidine uptake. The note with it: purified human B cells, day two; E. coli DNA 50 μg/ml, ODN 2 μM. The text has this:
Bacterial DNA has been described as a mitogen for both murine and human B cells. Although LPS is also mitogenic for murine B cells, it is generally accepted that LPS is not a mitogen for human B cells. […] B cell proliferation was monitored at day two by ^3H-thymidine uptake.

The next data set deals with T2, hTLR8 (Homo sapiens, UniProt Q9NR97).
T2 construct: codes for a protein of 1041 amino acids; expressed in transfected cells; host or cells: human 293 fibroblasts (ATCC CRL-1573), transient
T2 sequence (Q9NR97 27-1041): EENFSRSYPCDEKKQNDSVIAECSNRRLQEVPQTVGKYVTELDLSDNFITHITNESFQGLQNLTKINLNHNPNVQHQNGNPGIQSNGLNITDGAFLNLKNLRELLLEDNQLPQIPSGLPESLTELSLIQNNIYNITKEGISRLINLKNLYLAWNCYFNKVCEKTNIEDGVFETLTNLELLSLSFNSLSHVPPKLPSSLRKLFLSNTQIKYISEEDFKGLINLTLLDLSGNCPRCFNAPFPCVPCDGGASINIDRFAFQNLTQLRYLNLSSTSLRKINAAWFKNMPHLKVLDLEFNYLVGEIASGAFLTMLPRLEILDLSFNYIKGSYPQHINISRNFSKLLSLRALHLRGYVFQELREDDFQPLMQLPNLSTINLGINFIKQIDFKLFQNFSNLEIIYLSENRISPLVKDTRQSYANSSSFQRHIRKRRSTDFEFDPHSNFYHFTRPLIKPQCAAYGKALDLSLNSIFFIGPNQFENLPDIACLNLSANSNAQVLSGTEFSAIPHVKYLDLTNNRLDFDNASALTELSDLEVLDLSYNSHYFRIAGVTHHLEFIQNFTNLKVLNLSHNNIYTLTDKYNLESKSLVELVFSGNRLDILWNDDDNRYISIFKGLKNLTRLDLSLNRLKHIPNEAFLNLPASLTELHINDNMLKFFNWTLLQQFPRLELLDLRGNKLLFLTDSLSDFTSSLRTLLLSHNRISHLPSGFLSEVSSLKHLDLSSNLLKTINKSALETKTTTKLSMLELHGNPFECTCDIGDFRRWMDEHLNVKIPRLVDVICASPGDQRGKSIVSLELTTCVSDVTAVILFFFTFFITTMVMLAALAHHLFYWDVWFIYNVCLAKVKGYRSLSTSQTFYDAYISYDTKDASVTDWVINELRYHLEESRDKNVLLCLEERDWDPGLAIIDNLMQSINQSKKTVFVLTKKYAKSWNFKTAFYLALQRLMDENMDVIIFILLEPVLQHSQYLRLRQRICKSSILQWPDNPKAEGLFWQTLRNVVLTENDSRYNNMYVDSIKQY
The experiment in a line: IL-8 production in 293 cells transiently transfected with hTLR8. The settings on record: 293 cells transfected with hTLR8; ODN 2 μM, LPS 100 ng/ml. As to the method: as §1

For data set [1], the system named is Human peripheral blood mononuclear cells (PBMC). The experiment in a line: IL-12 production in human PBMC. The settings on record: ODN titration, after 8 hours. The text has this:
By iterative examination of the flanking sequences surrounding CG dinucleotides, CpG-motifs have been identified. Paradoxically, or by twist of nature, the human optimal CpG-motif, GTCGTT (SEQ ID NO:66), is different from the murine motif, GACGTT (SEQ ID NO:129). Human peripheral blood mononuclear cells (PBMC) (FIG. 10A) and murine splenocytes (FIG. 10B) were stimulated with ODN 2006 (filled circle, […], SEQ ID NO:112), ODN 2006-GC (open circle), ODN 1668 (filled triangle, […], SEQ ID NO:84) or ODN 1668-GC (open triangle, […], SEQ ID NO:85) at indicated concentrations and IL-12 production was monitored after 8 hours. […] It should also be noted that the Kac (concentration of half-maximal activation) of murine splenocytes for 1668 was greater than human PBMC for 2006 (compare FIG. 10A to FIG. 10B).

In the case of TCGTCGTTTTGTCGTTTTGTCGTT [ODN 2006], the “activation monitored by IL-8 production” value on hTLR7 and at hTLR8 was “None of the stimuli used activated” in each case. Also, the “B cell proliferation (3H-thymidine uptake)” value in the data set on human B cells is “proliferate”. The IL-12 production result in data set [1] was “induces IL-12 production”.
lipopolysaccharide [LPS]: the “activation monitored by IL-8 production” value at hTLR7 and on hTLR8 was “None of the stimuli used activated” each time.
Consider “TCCATGAGCTTCCTGATGCT (listed as DNA, chemistry not fully specified) [ODN 1668-GC]”, for which the IL-12 production result in data set [1] was “essentially negative”.
On to “TGCTGCTTTTGTGCTTTTGTGCTT (listed as DNA, chemistry not fully specified) [ODN 2006-GC]”, for which the “B cell proliferation (3H-thymidine uptake)” value in the data set with human B cells is “not”. In addition, the IL-12 production entry in data set [1] is recorded as “essentially negative”.
With “TCCATGACGTTCCTGATGCT (listed as DNA, chemistry not fully specified) [ODN 1668]”, the “activation monitored by IL-8 production” value with hTLR7 and with hTLR8 was “None of the stimuli used activated” in each case. In addition, the IL-12 production entry in data set [1] is recorded as “much less effective”.

(Values after patent US7820379B2, “Process for high throughput screening of CpG-based immuno-agonist/antagonist” (Coley Pharmaceutical GmbH, priority 2000, dated 2010).)
